Measured values from ChEMBL document CHEMBL1142594, “Antioxidative constituents of Etlingera elatior” (J Nat Prod, 2005).

Assay: Antioxidant activity assessed as inhibition of lipid peroxidation at 300 uM by ferric thiocyanate method
Format: functional

First: O=C(/C=C/C=C/C=C/c1ccc(O)cc1)c1ccc(O)cc1
Second: O=C(/C=C/C=C/c1ccc(O)cc1)/C=C/c1ccc(O)cc1
The inhibition of the first is higher: 93.7% for the first, 92.1% for the second.

First: COc1cc(/C=C/C(O)=C/C(=O)/C=C/c2ccc(O)cc2)ccc1O
Second: Cc1c(C)c2c(c(C)c1O)CC[C@@](C)(CCC[C@H](C)CCC[C@H](C)CCCC(C)C)O2
The inhibition of the first is higher: 92.5% for the first, 69.5% for the second.
